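Interpolation was linear, between the two tested concentrations surrounding the appropriate level; five concentrations were tested over 48 hours in 96-well plates. GI50: concentration for 50% inhibition of growth. TGI is the concentration that stops growth completely.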
Legend:
Assay in all cases: DTP human tumour cell line panel, 48 h
[1] = tested on: U251 CNS
[2] = tested on: T-47D breast
[3] = tested on: HT29 colon
[4] = tested on: HOP-62 NSCLC
[5] = tested on: LOX IMVI melanoma
[6] = tested on: IGROV1 ovarian
[7] = tested on: OVCAR-8 ovarian
[8] = tested on: NCI-H522 lung
[9] = tested on: HCT-116 colon
[10] = tested on: HOP-92 NSCLC
[11] = tested on: MALME-3M melanoma
[12] = tested on: BT-549 breast
[13] = tested on: 786-0 renal
[14] = tested on: HL-60(TB) leukemia
[15] = tested on: SNB-19 CNS
[16] = tested on: COLO 205 colon
[17] = tested on: CCRF-CEM leukemia
[18] = tested on: MDA-MB-468 breast
[19] = tested on: NCI/ADR-RES ovarian
[20] = tested on: SF-539 CNS
[21] = tested on: UACC-257 melanoma
[22] = tested on: OVCAR-4 ovarian
[23] = tested on: NCI-H226 lung
[24] = tested on: MOLT-4 leukemia
[25] = tested on: DU-145 prostate
[26] = tested on: SF-268 CNS
[27] = tested on: MDA-MB-435
[28] = tested on: SR leukemia
[29] = tested on: SN12C renal
[30] = tested on: RPMI-8226 leukemia

For `C/C(=N\N=C\c1cc([N+](=O)[O-])ccc1Cl)c1ccc2c(c1)Nc1ccccc1S2`, the GI50 [1] was 8.36 µM, the TGI [1] was 23.9 µM and the GI50 [2] was 4.3 µM. It also gave a TGI [2] of 25.8 µM, a GI50 [3] of 26 µM and a TGI [3] of over 100 µM. For the same compound, the GI50 [4] was 16.6 µM, the TGI [4] was 39.8 µM and the GI50 [5] was 31.3 µM. The TGI [5] was over 100 µM, the GI50 [6] was 23.6 µM and the TGI [6] was over 100 µM. The GI50 [7] was 12.2 µM, the TGI [7] was 35.8 µM and the GI50 [8] was 12.2 µM. For the same compound, the TGI [8] was 41 µM, the GI50 [9] was 3.36 µM and the TGI [9] was 15.3 µM. It also gave a GI50 [10] of 16.1 µM, a TGI [10] of 89.5 µM and a GI50 [11] of 19.1 µM. The TGI [11] was over 100 µM, the GI50 [12] was 20.7 µM and the TGI [12] was over 100 µM. For the same compound, the GI50 [13] was 12.4 µM, the TGI [13] was 27.6 µM and the GI50 [14] was 24.2 µM. It also gave a TGI [14] of over 100 µM, a GI50 [15] of 23.8 µM and a TGI [15] of over 100 µM. For the same compound, the GI50 [16] was 18.3 µM, the TGI [16] was over 100 µM and the GI50 [17] was 11.4 µM. For the same compound, the TGI [17] was over 100 µM, the GI50 [18] was 1.83 µM and the TGI [18] was 18.6 µM. It also gave a GI50 [19] of 17.9 µM, a TGI [19] of 65.5 µM and a GI50 [20] of 16.9 µM. It also gave a TGI [20] of 35.2 µM, a GI50 [21] of 23.6 µM and a TGI [21] of over 100 µM. For the same compound, the GI50 [22] was 3.12 µM, the TGI [22] was 11.8 µM and the GI50 [23] was 17.7 µM. The TGI [23] was over 100 µM, the GI50 [24] was 20.4 µM and the TGI [24] was over 100 µM. The GI50 [25] was 34.4 µM, the TGI [25] was over 100 µM and the GI50 [26] was 26.3 µM. The TGI [26] was over 100 µM, the GI50 [27] was 22.9 µM and the TGI [27] was over 100 µM. For the same compound, the GI50 [28] was 13.5 µM, the TGI [28] was 81 µM and the GI50 [29] was 6.86 µM. It also gave a TGI [29] of 28.5 µM and a GI50 [30] of 20.6 µM.
